Experiment [1] deals with T1, rat CB2 (Rattus norvegicus, UniProt Q9QZN9).
T1 sequence (Q9QZN9 1-360): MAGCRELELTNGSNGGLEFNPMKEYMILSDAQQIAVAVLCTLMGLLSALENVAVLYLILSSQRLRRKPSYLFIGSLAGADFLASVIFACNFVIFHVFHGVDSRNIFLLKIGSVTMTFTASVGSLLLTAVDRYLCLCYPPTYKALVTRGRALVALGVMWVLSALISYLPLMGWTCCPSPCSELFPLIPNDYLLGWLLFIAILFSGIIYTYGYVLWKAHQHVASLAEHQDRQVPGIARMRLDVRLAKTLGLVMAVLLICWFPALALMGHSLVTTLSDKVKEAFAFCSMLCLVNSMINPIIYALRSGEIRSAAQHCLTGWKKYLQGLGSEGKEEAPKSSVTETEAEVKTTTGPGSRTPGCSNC
Put plainly: rat CB2 cyclase functional assay (HitHunter cAMP, HEK cells). The experiment is classed as cell-based. Set-up: expressed in transfected cells; host or cells: HEK. Conditions: forskolin 18 μM.

Experiment [2] deals with T1, rat CB2. Put plainly: rat CB2 radioligand binding assay ([3H]CP-55,940 competition). The arrangement: expressed in transfected cells; host or cells: HEK293.
The target of a further experiment is T2, human CB2 receptors (Homo sapiens, UniProt P34972).
T2 construct: expressed in transfected cells; host or cells: HEK293
Put plainly: human CB2 radioligand binding assay ([3H]CP-55,940 competition).

27 compounds from patent US8501794B2, “Compounds as cannabinoid receptor ligands” (priority 2007, dated 2013) can be followed below.

T2 sequence (P34972 whole entry): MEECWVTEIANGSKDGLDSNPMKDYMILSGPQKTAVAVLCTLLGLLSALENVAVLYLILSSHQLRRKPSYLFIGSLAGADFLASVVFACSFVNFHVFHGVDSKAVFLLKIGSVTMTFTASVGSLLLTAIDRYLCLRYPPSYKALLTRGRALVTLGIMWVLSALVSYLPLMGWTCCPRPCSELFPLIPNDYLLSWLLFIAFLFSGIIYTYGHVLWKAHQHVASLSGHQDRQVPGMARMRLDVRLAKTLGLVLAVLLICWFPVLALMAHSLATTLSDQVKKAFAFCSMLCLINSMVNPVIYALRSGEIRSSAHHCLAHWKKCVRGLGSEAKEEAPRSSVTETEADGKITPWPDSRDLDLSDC

On to `COc1ccc(Cl)cc1C(=O)/N=c1\sn(C(C)(C)C)cc1C(O)C(C)C` (stereo not drawn) [Example 23, N-[(5Z)-2-tert-butyl-4-(1-hydroxy-2-methylpropyl)isothiazol-5(2H)-ylidene]-5-chloro-2-methoxybenzamide], for which the midpoint of the response on rat CB2 [1], the EC50, lay at 0.89 nM. Moreover, the Ki on rat CB2 [2] was 2.7 nM; on human CB2 receptors, 14 nM.

The compound `CC/C=C\c1cn(C(C)(C)C)s/c1=N\C(=O)c1cc(Cl)ccc1OC` [Example 25, N-[(5Z)-4-[(1Z)-but-1-enyl]-2-tert-butylisothiazol-5(2H)-ylidene]-5-chloro-2-methoxybenzamide] returned an EC50 on rat CB2 [1] of 1.7 nM. The Ki at rat CB2 [2] was 1.6 nM; at human CB2 receptors, 51 nM.

As to `CCCCc1cn(C(C)(C)C)s/c1=N\C(=O)c1cc(C#N)ccc1OC` [Example 26, N-[(5Z)-4-butyl-2-tert-butylisothiazol-5(2H)-ylidene]-5-cyano-2-methoxybenzamide], on rat CB2 [1], it took 0.23 nM to reach a half-maximal effect (EC50). For the same compound, the values for the inhibition constant Ki on rat CB2 [2] and on human CB2 receptors were 1 nM and 14 nM, respectively.

`CCOCc1cn(C(C)(C)C)s/c1=N\C(=O)c1cc(Cl)ccc1OC` [Example 29, N-[(5Z)-2-tert-butyl-4-(ethoxymethyl)isothiazol-5(2H)-ylidene]-5-chloro-2-methoxybenzamide] came in with an EC50 on rat CB2 [1] of 0.41 nM. Also, the Ki came out at 13 nM at rat CB2 [2] and 180 nM at human CB2 receptors.

`COc1ccc(Cl)cc1C(=O)/N=c1\sn(C(C)(C)C)cc1CCCC#N` [Example 30, N-[(5Z)-2-tert-butyl-4-(3-cyanopropyl)isothiazol-5(2H)-ylidene]-5-chloro-2-methoxybenzamide] gave an EC50 on rat CB2 [1] of 0.2 nM. Moreover, the Ki on rat CB2 [2] was 2.6 nM; on human CB2 receptors, 17 nM.

On to `COc1ccc(Cl)cc1C(=O)/N=c1\sn(C(C)(C)C)cc1C(O)C1CCC1` (stereo not drawn) [Example 34, N-[(5Z)-2-tert-butyl-4-[cyclobutyl(hydroxy)methyl]isothiazol-5(2H)-ylidene]-5-chloro-2-methoxybenzamide], for which the midpoint of the response at rat CB2 [1], the EC50, lay at 0.4 nM. Besides, the inhibitory constant (Ki) on rat CB2 [2] was determined as 1.2 nM; on human CB2 receptors, 3.6 nM.

As to `COc1ccc(Cl)cc1C(=O)/N=c1\sn(C(C)(C)C)cc1CCC1CCC1` [Example 36, N-[(5Z)-2-tert-butyl-4-(2-cyclobutylethyl)isothiazol-5(2H)-ylidene]-5-chloro-2-methoxybenzamide], a half-maximal effect on rat CB2 [1] (EC50) was put at 0.91 nM. The inhibitory constant (Ki) on rat CB2 [2] was determined as 0.16 nM; at human CB2 receptors, 1.3 nM.

Compound `COc1ccc(Cl)cc1C(=O)/N=c1\sn(C(C)(C)C)cc1CC(C)C` [Example 37, N-[(5Z)-2-tert-butyl-4-isobutylisothiazol-5(2H)-ylidene]-5-chloro-2-methoxybenzamide] returned an EC50 at rat CB2 [1] of 1.3 nM. The inhibition constant Ki was found to be 5.8 nM on rat CB2 [2] and 31 nM at human CB2 receptors.

For the compound `COc1ccc(Cl)cc1C(=O)/N=c1\sn(C(C)(C)C)cc1CC1CCC1` [Example 38, N-[(5Z)-2-tert-butyl-4-(cyclobutylmethyl)isothiazol-5(2H)-ylidene]-5-chloro-2-methoxybenzamide], a half-maximal effect at rat CB2 [1] (EC50) was put at 1.7 nM. Moreover, the values for the Ki at rat CB2 [2] and at human CB2 receptors were 0.61 nM and 2.5 nM, respectively.

Consider `COc1ccc(Cl)cc1C(=O)/N=c1\sn(C(C)(C)C)cc1C1CCOCC1` [Example 39, N-[(5Z)-2-tert-butyl-4-tetrahydro-2H-pyran-4-ylisothiazol-5(2H)-ylidene]-5-chloro-2-methoxybenzamide], for which, at rat CB2 [1], a half-maximal response (EC50) required 1.6 nM. Moreover, the values for the Ki at rat CB2 [2] and at human CB2 receptors were 26 nM and 99 nM, respectively.

In the case of `CCCCc1cn(C(C)(C)C)s/c1=N\C(=O)c1cc(OC)ccc1OC` [Example 41, N-[(5Z)-4-butyl-2-tert-butylisothiazol-5(2H)-ylidene]-2,5-dimethoxybenzamide], at rat CB2 [1], the EC50 was 0.21 nM. Besides, the Ki on rat CB2 [2] is 6.3 nM; on human CB2 receptors, 45 nM.

Take `CCCCc1cn(C(C)(C)C)s/c1=N\C(=O)c1cc(F)ccc1OC` [Example 42, N-[(5Z)-4-butyl-2-tert-butylisothiazol-5(2H)-ylidene]-5-fluoro-2-methoxybenzamide]: the EC50 on rat CB2 [1] worked out at 0.31 nM. Moreover, the Ki is 2.3 nM on rat CB2 [2] and 24 nM at human CB2 receptors.

On rat CB2 [1], `CCCCc1cn(C(C)(C)C)s/c1=N\C(=O)c1cc(C)ccc1OC` [Example 43, N-[(5Z)-4-butyl-2-tert-butylisothiazol-5(2H)-ylidene]-2-methoxy-5-methylbenzamide] registered an EC50 of 0.23 nM. In addition, the Ki is 2.6 nM at rat CB2 [2] and 18 nM on human CB2 receptors.

At rat CB2 [1], `COc1ccc(Cl)cc1C(=O)/N=c1\sn(C(C)(C)C)cc1Cc1ccco1` [Example 50, N-[(5Z)-2-tert-butyl-4-(2-furylmethyl)isothiazol-5(2H)-ylidene]-5-chloro-2-methoxybenzamide] showed an EC50 of 0.13 nM. For the same compound, the Ki at rat CB2 [2] came to 2.5 nM; at human CB2 receptors, 19 nM.

`COc1ccc(C#N)cc1C(=O)/N=c1\sn(C(C)(C)C)cc1Cc1ccco1` [Example 51, N-[(5Z)-2-tert-butyl-4-(2-furylmethyl)isothiazol-5(2H)-ylidene]-5-cyano-2-methoxybenzamide] came in with an EC50 at rat CB2 [1] of 0.3 nM. In addition, the values for the Ki on rat CB2 [2] and on human CB2 receptors were 8.1 nM and 140 nM, respectively.

`COc1ccc(Cl)cc1C(=O)/N=c1\sn(C(C)(C)C)cc1Cc1cscn1` [Example 52, N-[(5Z)-2-tert-butyl-4-(1,3-thiazol-4-ylmethyl)isothiazol-5(2H)-ylidene]-5-chloro-2-methoxybenzamide] yielded an EC50 at rat CB2 [1] of 0.15 nM. Further, the values for the Ki on rat CB2 [2] and at human CB2 receptors were 4.8 nM and 43 nM, respectively.

`CCCCc1cn(C(C)(C)C)s/c1=N\C(=O)c1cc(C=O)ccc1OC` [Example 56, N-[(5Z)-4-butyl-2-tert-butylisothiazol-5(2H)-ylidene]-5-formyl-2-methoxybenzamide] showed an EC50 on rat CB2 [1] of 0.076 nM. The inhibition constant Ki on rat CB2 [2] is 1.2 nM; at human CB2 receptors it was 11 nM.

In the case of `CCCCc1cn(C(C)(C)C)s/c1=N\C(=O)c1cc(C=NO)ccc1OC` [Example 59, N-[(5Z)-4-butyl-2-tert-butylisothiazol-5(2H)-ylidene]-5-[(hydroxyimino)methyl]-2-methoxybenzamide], the EC50 on rat CB2 [1] was determined as 0.12 nM. Besides, the Ki was found to be 3.3 nM at rat CB2 [2] and 54 nM on human CB2 receptors.

`CCCCc1cn(C(C)(C)C)s/c1=N\C(=O)c1cc(C(C)=O)ccc1OC` [Example 64, 5-acetyl-N-[(5Z)-4-butyl-2-tert-butylisothiazol-5(2H)-ylidene]-2-methoxybenzamide] came in with an EC50 on rat CB2 [1] of 0.05 nM. Further, the Ki was found to be 0.63 nM on rat CB2 [2] and 14 nM on human CB2 receptors.

On rat CB2 [1], `CCCCc1cn(C(C)(C)C)s/c1=N\C(=O)c1cc(C(F)F)ccc1OC` [Example 65, N-[(5Z)-4-butyl-2-tert-butylisothiazol-5(2H)-ylidene]-5-(difluoromethyl)-2-methoxybenzamide] displayed an EC50 of 0.052 nM. For the same compound, the Ki turned out to be 1.6 nM on rat CB2 [2] and 9.3 nM at human CB2 receptors.

On to `COc1ccc(Cl)cc1C(=O)/N=c1\sn(C(C)(C)C)cc1CC1CCCO1` (stereo not drawn) [Example 67, N-[(5Z)-2-tert-butyl-4-(tetrahydrofuran-2-ylmethyl)isothiazol-5(2H)-ylidene]-5-chloro-2-methoxybenzamide], for which the EC50 at rat CB2 [1] was found to be 3.7 nM. Further, the Ki on rat CB2 [2] turned out to be 3 nM; at human CB2 receptors, 32 nM.

`CCCCc1cn(C(C)(C)C)s/c1=N\C(=O)c1cc(/C(C)=N\O)ccc1OC` [Example 68, N-[(5Z)-4-butyl-2-tert-butylisothiazol-5(2H)-ylidene]-5-[(1Z)-N-hydroxyethanimidoy1]-2-methoxybenzamide]: the 50% effective concentration (EC50) on rat CB2 [1] turned out to be 0.022 nM. Moreover, the results for the Ki on rat CB2 [2] and on human CB2 receptors were 8.3 nM and 59 nM, respectively.

Regarding `CCCCc1cn(C(C)(C)C)s/c1=N\C(=O)c1cc(C(C)(F)F)ccc1OC` [Example 69, N-[(5Z)-4-butyl-2-tert-butylisothiazol-5(2H)-ylidene]-5-(1,1-difluoroethyl)-2-methoxybenzamide], at rat CB2 [1], a half-maximal response (EC50) required 0.043 nM. For the same compound, the inhibition constant Ki at rat CB2 [2] turned out to be 1.6 nM; at human CB2 receptors, 18 nM.

At rat CB2 [1], `COc1ccc(C(F)(F)F)cc1C(=O)/N=c1\sn(C(C)(C)C)cc1Cc1ccco1` [Example 71, N-[(5Z)-2-tert-butyl-4-(2-furylmethyl)isothiazol-5(2H)-ylidene]-2-methoxy-5-(trifluoromethyl)benzamide] gave an EC50 of 0.36 nM. Moreover, the values for the Ki on rat CB2 [2] and at human CB2 receptors were 1.9 nM and 28 nM, respectively.

Consider `COc1ccc(Cl)cc1C(=O)/N=c1\sn(C(C)(C)C)cc1COC(C)C` [Example 72, N-[(5Z)-2-tert-butyl-4-(isopropoxymethyl)isothiazol-5(2H)-ylidene]-5-chloro-2-methoxybenzamide], for which the EC50 at rat CB2 [1] turned out to be 0.054 nM. For the same compound, the results for the Ki at rat CB2 [2] and at human CB2 receptors were 7.4 nM and 19 nM, respectively.

For the compound `CCCCc1cn(C(C)(C)C)s/c1=N\C(=O)c1cc(C(=O)OC)ccc1OC` [Example 74, Methyl 3-({[(5Z)-4-butyl-2-tert-butylisothiazol-5(2H)-ylidene]amino}carbonyl)-4-methoxybenzoate], the EC50 at rat CB2 [1] was 0.095 nM. Further, the Ki is 2.5 nM at rat CB2 [2] and 27 nM at human CB2 receptors.

`COc1ccc(Cl)cc1C(=O)/N=c1\sn(C(C)(C)C)cc1CCCC(C)=O` [Example 75, N-[(5Z)-2-tert-butyl-4-(4-oxopentyl)isothiazol-5(2H)-ylidene]-5-chloro-2-methoxybenzamide] returned an EC50 at rat CB2 [1] of 0.29 nM. For the same compound, the Ki at rat CB2 [2] was 4 nM; on human CB2 receptors it was 31 nM.
